Measured values reported in PMC7037671, “Naphthoquinone Derivatives with Anti-Inflammatory Activity from Mangrove-Derived Endophytic Fungus Talaromyces sp. SK-S009” (Molecules, 2020).
Read-outs that look alike come from different tables or passages of the source.

Columns and labels:
[1] = system: LPS-induced NO production in the murine macrophage cell line (RAW 264.7 cells); experiment: Inhibition of LPS-induced NO production (Griess reagent); assay type: cell-based; conditions: Mus musculus, read-out: IC50 against LPS-induced NO production
Method: (§1) The nitrite/nitrate oxidized from NO was detected by the Griess reagent as previously reported with slight modifications. The murine macrophage cell line (RAW 264.7 cells) were seeded in 96-well plates at a density of 1 × 10^5 cells/well and preincubated for 12 h. The tested compounds were dissolved in dimethylsulfoxide (DMSO) and diluted with Dulbecco’s Modified Eagle Medium (DMEM) medium to a final concentration (final DMSO concentration <0.1% in all assays). Indomethacin was used as the positive control. Cells were stimulated with 1µg/mL of lipopolysaccharide (LPS, Sigma, St. Louis, MO, USA) with or without tested compounds for 24 h. Then culture supernatant was mixed with an equal volume of Griess reagent I and II (Beyotime, Shanghai, China), and measured at 540 nm using a microplate reader (Bio-Rad Laboratories, Inc., Kyoto, Japan). Cell viability was evaluated using MTT assay.

[2] = Cytotoxicity / cell viability by MTT assay; assay type: cell-based, murine; conditions: mouse, RAW 264.7 cells, MTT assay
Method: as §1

RAW 264.7 cells = experiment: Cytotoxicity / cell viability by MTT assay; assay type: cell-based, murine; conditions: CC50 (MTT) / IC50 (NO production)
Method: as §1

[3] = system: inducible nitric oxide synthase (iNOS) mRNA; experiment: Real-time PCR, iNOS mRNA expression in LPS-stimulated RAW 264.7 cells; assay type: cell-based, murine; conditions: LPS (1 μg/mL) 12 h, 1 h pretreatment, 1, 2, 4 μM, RT-PCR
Method: (§2) Figure 4 RAW 264.7 murine macrophage cells were pre-incubated for 12h, and then cells were pretreated with compound 9 at the indicated concentration for 1 h and incubated with LPS (1 μg/mL) for 12h (real-time PCR). The effect of compound 9 on the mRNA expressions of inducible nitric oxide synthase (iNOS) (A), cyclooxygenase-2 (COX-2)(B), tumor necrosis factor (TNF)-α (C), interleukin (IL)-6 (D), and IL-1β (E) were detected by real-time PCR. The data represent the mean values ± SD of three experiments, * p < 0.05, ** p < 0.01 compared to LPS-treated group.
(§3) RAW264.7 cells were placed in a 6-well plate at a density of 1 × 10^6 cells/well and incubated for 12 h. Cultured cells were pretreated with compound 9 (1, 2, 4 μM/L) for 1 h and incubated with LPS (1 μg/mL) for 12 h. RNA was extracted with Trizol Reagent (Takara Bio Inc., Otsu, Japan) according to the manufacturer’s instructions, and cDNA was reverse transcribed from total RNA using a Superscript III system (Takara Bio Inc., Otsu, Japan). PCR amplification was carried out using PikoReal™ (Thermo Fisher Scientific, MA, US) and specific primers. The optimal conditions for PCR amplification of the cDNA were established by following the manufacturer’s instructions. Relative gene expression was calculated using the comparative Ct method (2^−ΔΔCt) with glyceraldehyde-3-phosphate dehydrogenase (GAPDH) as an internal control. […]

[4] = system: cyclooxygenase-2 (COX-2) mRNA; experiment: Real-time PCR, COX-2 mRNA expression in LPS-stimulated RAW 264.7 cells; assay type: cell-based, murine; conditions: LPS (1 μg/mL) 12 h, 1 h pretreatment, 1, 2, 4 μM, RT-PCR
Method: as §2, §3

[5] = system: tumor necrosis factor (TNF)-α mRNA; experiment: Real-time PCR, TNF-α mRNA expression in LPS-stimulated RAW 264.7 cells; assay type: cell-based, murine
Method: as §2, §3

interleukin (IL)-1β mRNA = experiment: Real-time PCR, IL-1β mRNA expression in LPS-stimulated RAW 264.7 cells; assay type: cell-based, murine
Method: as §2, §3

IL-6 mRNA = experiment: Real-time PCR, IL-6 mRNA expression in LPS-stimulated RAW 264.7 cells; assay type: cell-based, murine
Method: as §2, §3

[6] = RAW264.7, RAW 264.7 cells, LPS 1 µg/mL, 24 h, means ± SD, n = 3
[7] = RAW 264.7 macrophage cells, means ± SD, n = 3, read-out: CC50
[8] = RAW 264.7 macrophage cells, tested at 50 μM, read-out: CC50 (cytotoxicity, class symbol)
[9] = 2.0 μM, compared with the control groups
[10] = LPS (1 μg/mL) 12 h, 1 h pretreatment, 1, 2, 4 μM, RT-PCR

| Compound | IC50 [1, 6] | CC50 at 24 h [2, 7] | SI (selectivity index, CC50/IC50) (RAW 264.7 cells) | CC50 at 24 h [2, 8] | also measured |
| --- | --- | --- | --- | --- | --- |
| COc1cc(O)c2c(c1)C(=O)C(C[C@H](C)O)=C(C)C2=O [Compound 1, Talanaphthoquinone A] | 3.9 ± 0.5 µM | 30.7 ± 0.5 µM | 7.9 |  |  |
| COC1=CC(=O)c2c(O)c(C)c3c(c2C1=O)OC(CO)C3 (stereo not shown) [Compound 2, Talanaphthoquinone B] | 49.7 ± 1.5 µM |  |  | > 50 µM | melting point: 157.7 to 159.3 °C |
| COC1=CC(=O)c2c(O)c(C)c3c(c2C1=O)OC(C)C3 (stereo not shown) [Compound 3, anhydrojavanicin] | 16 ± 0.2 µM |  |  |  | CC50 at 24 h ([2]; tested at 50 μM, read-out: CC50 (cytotoxicity, class symbol)): > 50 µM |
| COC1=CC(=O)c2c(O)c(CO)c3c(c2C1=O)OC(C)C3 (stereo not shown) [Compound 4, 2,3-dihydro-5-hydroxy-4-hydroxymethyl-8-methoxy-2-methylnaphtho[1,2-b]furan-6,9-dione] | 22.6 ± 0.5 µM |  |  | > 50 µM |  |
| COC1=CC(=O)c2c(O)c(C)c3cc(C)oc3c2C1=O [Compound 5, anhydrojavanicin] | 11.2 ± 0.3 µM |  |  | > 50 µM |  |
| COC1=CC(=O)c2c(O)c3c(c(O)c2C1=O)C=C(C)OC3 [Compound 6, anhydrofusarubin] |  |  |  | > 50 µM | IC50 ([1]; RAW264.7, 24 h): 5.2 ± 0.1 µM |
| CCc1c(OC)cc2c(c1O)C(=O)C=C(OC)C2=O [Compound 8, 6-ethyl-2,7-dimethoxyjuglone] | 7.7 ± 0.3 µM |  |  | > 50 µM |  |
| COC1=CC(=O)c2c(cc(OC)c(C(C)OC(C)=O)c2O)C1=O (stereo not shown) [Compound 9, 6-[1-(acetyloxy)ethyl]-5-hydroxy-2,7-dimethoxy-1,4-naphthalenedione] | 1.7 ± 0.2 µM | 50.3 ± 1.5 µM | 29.6 |  | effect on iNOS mRNA expression [3]: apparently reduced; effect on COX-2 mRNA expression [4]: apparently reduced; inhibition of TNF-α mRNA expression [5, 9]: about 80%; effect on TNF-α mRNA expression [5, 10]: apparently reduced; inhibition of IL-1β mRNA expression (interleukin (IL)-1β mRNA; [9]): about 80%; effect on IL-1β mRNA expression (interleukin (IL)-1β mRNA; [10]): apparently reduced; inhibition of IL-6 mRNA expression (IL-6 mRNA; [9]): about 80%; effect on IL-6 mRNA expression (IL-6 mRNA; [10]): apparently reduced |
| COC1=CC(=O)c2c(cc(OC)c(C(C)O)c2O)C1=O (stereo not shown) [Compound 10, 5-hydroxy-6-(1-hydroxyethyl)-2,7-dimethoxy-1,4-naphthalenedione] | 7.5 ± 0.2 µM | 15.8 ± 0.4 µM | 2.1 |  |  |
| COC1=CC(=O)c2c(O)c(C)c(CC(C)O)c(O)c2C1=O (stereo not shown) [Compound 11, solaniol] | 15.5 ± 0.6 µM |  | 3.8 |  | CC50 at 24 h ([2]; means ± SD, n = 3, read-out: CC50): 59.2 ± 1.5 µM |
| COC1=CC(=O)c2c(O)c(C)c(CC(C)=O)c(O)c2C1=O [Compound 12, javanicin] | 5.6 ± 0.3 µM | 48.4 ± 1.3 µM | 8.6 |  |  |
| COc1ccc2c(c1)c(CC(=O)O)c(C)n2C(=O)c1ccc(Cl)cc1 [Indomethacin, reference compound] | 26.3 ± 0.6 µM |  |  |  |  |
